PMC11611271, “Rapid prediction of key residues for foldability by machine learning model enables the design of highly functional libraries with hyperstable constrained peptide scaffolds” (PLOS Computational Biology, 2024)
Where a SMILES comes first, the peptide text is derived from it. Bridges are numbered along the chain shown (N, C = ends).

Tests used:
[1] = tested on: HtrA1; assay: phage spot ELISA on HtrA1; type: binding; details: for ELISA s/n: Spot ELISA signal/noise; for ELISA s/n / ELISA signal: Fig 9A; for ELISA signal: Spot ELISA
From the text: To determine the performance of the libraries for ligand discovery we chose a panel of eight protein targets, which have no structural homology and a wide mass range (Fig 7C). We screened these eight targets with solution panning strategy and two additional plate panning for CD8α/β and CD28, thus ten panning campaigns in total. We consider clones showing spot phage ELISA signal > 0.3 and signal/noise ratio > 2 as positive hits. […] We also obtained the NGS data for these screening and the ranking of clones for their enrichment along the rounds of screening was analyzed and considered the top-ranking clones as potential hits. Based on their sequence diversity we selected 16 potential hits spanning five protein targets for peptide synthesis in their linear form. Seven of these are hits with positive phage ELISA signal and nine were selected based on NGS ranking without spot ELISA available. Subsequently, we conducted in vitro folding experiments on these peptides in various buffers.
(§1) The 5ji4 libraries were constructed following the Kunkel mutagenesis method and the solution panning protocol was followed as previously described. After four to five rounds of binding selection, while eluted pool was subjected to NGS analysis, individual phage clones were also picked and analyzed with phage spot ELISA. Positive clones were subjected to SANGER sequencing.
Among these five hits, A7, which is the SANGER hit, was picked for affinity maturation. Following the same strategy, one soft- and one hard-randomization library was designed targeting the 5JI4 variable regions 1 and 2, respectively. Two libraries were each panned as previously described. Both phage spot ELISA coupled with SANGER sequencing and NGS analysis were applied after affinity maturation.

[2] = tested on: CRD7; assay: phage spot ELISA on CRD7; type: binding; details: S3 Table sheet CRD7; for S/N: phage spot ELISA signal/noise; for ELISA: phage spot ELISA signal
From the text: To determine the performance of the libraries for ligand discovery we chose a panel of eight protein targets, which have no structural homology and a wide mass range (Fig 7C). We screened these eight targets with solution panning strategy and two additional plate panning for CD8α/β and CD28, thus ten panning campaigns in total. We consider clones showing spot phage ELISA signal > 0.3 and signal/noise ratio > 2 as positive hits. At least one binding hit was discovered for nine out of the ten panning campaigns, surpassing the success rate of the best DCP scaffolds reported previously. We also obtained the NGS data for these screening and the ranking of clones for their enrichment along the rounds of screening was analyzed and considered the top-ranking clones as potential hits. Based on their sequence diversity we selected 16 potential hits spanning five protein targets for peptide synthesis in their linear form. Seven of these are hits with positive phage ELISA signal and nine were selected based on NGS ranking without spot ELISA available. Subsequently, we conducted in vitro folding experiments on these peptides in various buffers. We observed a strong propensity for spontaneous folding regardless of the buffer condition. All HCP hits tested successfully folded into three-disulfide-containing product within two days in a universal buffer system (PBS, pH 7.4, 50% DMSO) without the need for a redox pair, as shown in Fig 8A. The binding of these folded peptides to their respective target proteins was confirmed using SPR (Table 4 and S1 Data) and binding kinetics are exemplified by the high-affinity peptide 5ji4-CRD7-2 (see Fig 8B). Among seven selected ELISA-positive hits, all of them were successfully synthesized and in vitro folded with three disulfide bonds and five were proven to be validated binders by SPR (Table 4). Nine peptides selected from the NGS ranking were synthesized and folded with the expected number of disulfide bonds and five of them bound to their target with affinities in the μM range as determined by SPR (Table 4). In general, binding affinities for these SPR-validated initial hits are weak, with Kd values in the micromolar range and fast on- and off-rates. There are two exceptions with binding affinities in the nanomolar range.
as §1

| Molecule | ELISA s/n [1] | ELISA signal [1] | S/N [2] | ELISA [2] | further results |
| --- | --- | --- | --- | --- | --- |
| CSCC[C@@H]1NC(=O)[C@H](CO)NC(=O)[C@@H]2CSSC[C@H](NC(=O)[C@H](CCC(=O)O)NC(=O)[C@H](C)NC(=O)[C@H](CO)NC(=O)[C@H](CO)NC(=O)[C@H]([C@@H](C)O)NC(=O)[C@H](CCSC)NC(=O)[C@H](Cc3ccccc3)NC(=O)[C@H]([C@@H](C)O)NC(=O)[C@H](Cc3c[nH]c4ccccc34)NC(=O)CNC(=O)[C@@H]3CCCN3C(=O)[C@H](CC(C)C)NC1=O)C(=O)N[C@@H](CCC(=O)O)C(=O)N[C@@H](CCCNC(=N)N)C(=O)N[C@@H](CC(C)C)C(=O)N[C@H]1CSSC[C@H](NC(=O)[C@H]([C@@H](C)O)NC(=O)[C@H](CCCNC(=N)N)NC(=O)[C@H](CC(C)C)NC(=O)CNC(=O)[C@H](CC(C)C)NC(=O)[C@H](CCCNC(=N)N)NC(=O)[C@H](CC(=O)O)NC1=O)C(=O)N[C@@H](CCCNC(=N)N)C(=O)N[C@@H](C(C)C)C(=O)N[C@@H](Cc1c[nH]cn1)C(=O)N[C@H](C(=O)NCC(=O)O)CSSC[C@H](NC(=O)[C@@H]1CCCN1)C(=O)N[C@@H](CCC(=O)O)C(=O)N2 [5ji4_A7.B7B2] (H-PCECSMLPGWTFMTSSAECERLCDRLGLRTCRVHCG-OH; disulfide 2-35, 4-19, 23-31) | 7.2 | 3.54 | – | – | – |
| CC[C@H](C)[C@@H]1NC(=O)[C@H]([C@@H](C)O)NC(=O)[C@@H]2CSSC[C@H](NC(=O)[C@H](CCC(=O)O)NC(=O)[C@H](C)NC(=O)[C@H](CO)NC(=O)[C@H](CO)NC(=O)[C@H]([C@@H](C)O)NC(=O)[C@H](CC(C)C)NC(=O)[C@H](Cc3ccccc3)NC(=O)[C@H](Cc3c[nH]cn3)NC(=O)[C@H](Cc3c[nH]c4ccccc34)NC(=O)CNC(=O)[C@@H]3CCCN3C(=O)[C@H](CC(C)C)NC1=O)C(=O)N[C@@H](C)C(=O)N[C@@H](CCCNC(=N)N)C(=O)N[C@@H](CC(C)C)C(=O)N[C@H]1CSSC[C@H](NC(=O)[C@H]([C@@H](C)O)NC(=O)[C@H](CCCNC(=N)N)NC(=O)[C@H](CC(C)C)NC(=O)CNC(=O)[C@H](CC(C)C)NC(=O)[C@H](CCCNC(=N)N)NC(=O)[C@H](CC(=O)O)NC1=O)C(=O)N[C@@H](CCCNC(=N)N)C(=O)N[C@@H](C(C)C)C(=O)N[C@@H](Cc1c[nH]cn1)C(=O)N[C@H](C(=O)NCC(=O)O)CSSC[C@H](NC(=O)[C@@H]1CCCN1)C(=O)N[C@@H](CCC(=O)O)C(=O)N2 [5ji4_A7.B9B2] (H-PCECTILPGWHFLTSSAECARLCDRLGLRTCRVHCG-OH; disulfide 2-35, 4-19, 23-31) | 7.0 | 3.67 | – | – | – |
| CC[C@H](C)[C@@H]1NC(=O)[C@H](CO)NC(=O)[C@@H]2CSSC[C@H](NC(=O)[C@H](CCC(=O)O)NC(=O)[C@H](C)NC(=O)[C@H](CO)NC(=O)[C@H](CO)NC(=O)[C@H]([C@@H](C)O)NC(=O)[C@H](CC(C)C)NC(=O)[C@H](Cc3ccccc3)NC(=O)[C@H](Cc3c[nH]cn3)NC(=O)[C@H](Cc3c[nH]c4ccccc34)NC(=O)CNC(=O)[C@H](CCCNC(=N)N)NC(=O)[C@H](CC(C)C)NC1=O)C(=O)N[C@@H](CCC(=O)O)C(=O)N[C@@H](CCCNC(=N)N)C(=O)N[C@@H](CC(C)C)C(=O)N[C@H]1CSSC[C@H](NC(=O)[C@H]([C@@H](C)O)NC(=O)[C@H](CCCNC(=N)N)NC(=O)[C@H](CC(C)C)NC(=O)CNC(=O)[C@H](CC(C)C)NC(=O)[C@H](CCCNC(=N)N)NC(=O)[C@H](CC(=O)O)NC1=O)C(=O)N[C@@H](CCCNC(=N)N)C(=O)N[C@@H]([C@@H](C)CC)C(=O)N[C@@H](Cc1c[nH]cn1)C(=O)N[C@H](C(=O)NCC(=O)O)CSSC[C@H](NC(=O)[C@@H]1CCCN1)C(=O)N[C@@H](CCC(=O)O)C(=O)N2 [5ji4_A7.D7B2] (H-PCECSILRGWHFLTSSAECERLCDRLGLRTCRIHCG-OH; disulfide 2-35, 4-19, 23-31) | 5.3 | 3.45 | – | – | – |
| CC[C@H](C)[C@@H]1NC(=O)[C@H]([C@@H](C)O)NC(=O)[C@@H]2CSSC[C@H](NC(=O)[C@H](CCC(=O)O)NC(=O)[C@H](C)NC(=O)[C@H](CO)NC(=O)[C@H](CO)NC(=O)[C@H]([C@@H](C)O)NC(=O)[C@H](CC(C)C)NC(=O)[C@H](Cc3ccccc3)NC(=O)[C@H](Cc3ccc(O)cc3)NC(=O)[C@H](Cc3c[nH]c4ccccc34)NC(=O)CNC(=O)[C@@H]3CCCN3C(=O)[C@H](CC(C)C)NC1=O)C(=O)N[C@@H](CCC(=O)O)C(=O)N[C@@H](CCCNC(=N)N)C(=O)N[C@@H](CC(C)C)C(=O)N[C@H]1CSSC[C@H](NC(=O)[C@H]([C@@H](C)O)NC(=O)[C@H](CCCNC(=N)N)NC(=O)[C@H](CC(C)C)NC(=O)CNC(=O)[C@H](CC(C)C)NC(=O)[C@H](CCCNC(=N)N)NC(=O)[C@H](CC(=O)O)NC1=O)C(=O)N[C@@H](CCCNC(=N)N)C(=O)N[C@@H](C(C)C)C(=O)N[C@@H](Cc1c[nH]cn1)C(=O)N[C@H](C(=O)NCC(=O)O)CSSC[C@H](NC(=O)[C@@H]1CCCN1)C(=O)N[C@@H](CCC(=O)O)C(=O)N2 [5ji4_A7.H5B2] (H-PCECTILPGWYFLTSSAECERLCDRLGLRTCRVHCG-OH; disulfide 2-35, 4-19, 23-31) | 7.6 | 3.59 | – | – | – |
| CC[C@H](C)[C@@H]1NC(=O)[C@H](CCCNC(=N)N)NC(=O)[C@@H]2CSSC[C@H](NC(=O)[C@H](CC(C)C)NC(=O)[C@H](CCCNC(=N)N)NC(=O)[C@H](C)NC(=O)[C@@H]3CSSC[C@H](NC(=O)[C@H](CCC(=O)O)NC(=O)[C@@H](NC(=O)[C@@H]4CCCN4)CSSC[C@@H](C(=O)NCC(=O)O)NC(=O)[C@H](Cc4c[nH]cn4)NC1=O)C(=O)N[C@@H](CO)C(=O)N[C@@H]([C@@H](C)CC)C(=O)N[C@@H](CC(C)C)C(=O)N1CCC[C@H]1C(=O)NCC(=O)N[C@@H](Cc1c[nH]c4ccccc14)C(=O)N[C@@H](Cc1c[nH]cn1)C(=O)N[C@@H](Cc1ccccc1)C(=O)N[C@@H](CC(C)C)C(=O)N[C@@H]([C@@H](C)O)C(=O)N[C@@H](CO)C(=O)N[C@@H](CO)C(=O)N[C@@H](C)C(=O)N[C@@H](CCC(=O)O)C(=O)N3)C(=O)N[C@@H](CC(=O)O)C(=O)N[C@@H](CCCNC(=N)N)C(=O)N[C@@H](CC(C)C)C(=O)NCC(=O)N[C@@H](CC(C)C)C(=O)N[C@@H](CCCNC(=N)N)C(=O)N[C@@H]([C@@H](C)O)C(=O)N2 [5ji4_A7.c1] (H-PCECSILPGWHFLTSSAECARLCDRLGLRTCRIHCG-OH; disulfide 2-35, 4-19, 23-31) | 7.5 | 3.55 | – | – | – |
| PCECDVNGETYTVSSSEECGRLCMTDWVTSCRVHCG [CRD7 clone 8, phage clone, 5JI4 library, CRD7 panning] | – | – | 5.905 | 0.372 | – |
| PCECIWANYVGYPFSSEECERLCRKLGVTNCRVHCG [CRD7 clone 3, phage clone, 5JI4 library, CRD7 panning] | – | – | 2.388 | 0.289 | – |
| PCECNYIPWIWIPQSSEECERLCRKLGVTNCRVHCG [CRD7 clone 5, phage clone, 5JI4 library, CRD7 panning] | – | – | 3.588 | 0.244 | – |
| PCECPATVHWYFIGSSEECERLCRKLGVTNSRVHCD [CRD7 clone 1, phage clone, 5JI4 library, CRD7 panning] | – | – | 7.871 | 0.488 | – |
| PCECPIRPYGVPVKSSEECERLCRKLGVTNCRVHCG [CRD7 clone 2, phage clone, 5JI4 library, CRD7 panning] | – | – | 4.654 | 0.377 | – |
| PCECPSSVYWYFISSSEECERLCRKLGVTNCRVHCG [CRD7 clone 6, phage clone, 5JI4 library, CRD7 panning] | – | – | 3.75 | 0.225 | – |
| PCECRWMFYSTWELSSEECERLCRKLGVTNCRVHCG [CRD7 clone 4, phage clone, 5JI4 library, CRD7 panning] | – | – | 4 | 0.28 | – |
| PCECTILRGWHFLTSSAECERLCRKLGVTNCRVHCG [HtrA1 clone 1, phage clone, 5JI4 library, HtrA1 panning; sole HtrA1 hit, probably 5ji4-A7] | – | – | – | – | S/N ([1]; phage spot ELISA signal/noise, S3 Table sheet HtrA1): 8.86; ELISA ([1]; phage spot ELISA signal, S3 Table sheet HtrA1): 1.0205 |
